Measured values from US20200131132A1, “FARNESOID X RECEPTOR AGONISTS AND USES THEREOF” (Metacrine, Inc., priority 2017, published 2020).

What follows are compounds tested against T1, hFXR (Homo sapiens, UniProt Q96RI1) (assay: In Vitro FXR Assay (TK)). Settings: CV-1 cells transfected with hFXR, hRXR, TK-ECRE-luc and pCMX-YFP; compounds incubated 18 hrs; luminescence.
T1 construct: expressed in transfected cells; host or cells: CV-1 cells
T1 sequence (Q96RI1 1-486): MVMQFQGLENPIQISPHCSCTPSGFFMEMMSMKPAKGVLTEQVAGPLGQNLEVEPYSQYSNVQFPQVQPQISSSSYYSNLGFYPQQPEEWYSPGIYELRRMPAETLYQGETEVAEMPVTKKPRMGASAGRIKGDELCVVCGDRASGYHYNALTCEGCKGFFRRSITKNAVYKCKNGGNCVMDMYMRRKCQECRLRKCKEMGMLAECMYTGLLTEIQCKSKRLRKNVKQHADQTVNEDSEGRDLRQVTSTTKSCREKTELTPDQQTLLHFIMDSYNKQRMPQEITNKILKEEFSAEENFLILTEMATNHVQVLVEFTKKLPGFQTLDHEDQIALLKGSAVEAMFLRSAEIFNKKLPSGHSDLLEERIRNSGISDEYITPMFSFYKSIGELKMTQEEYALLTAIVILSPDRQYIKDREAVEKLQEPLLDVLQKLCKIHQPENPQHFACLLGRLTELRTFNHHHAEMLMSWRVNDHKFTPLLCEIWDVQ
T1 sequence (P19793 1-462 partner): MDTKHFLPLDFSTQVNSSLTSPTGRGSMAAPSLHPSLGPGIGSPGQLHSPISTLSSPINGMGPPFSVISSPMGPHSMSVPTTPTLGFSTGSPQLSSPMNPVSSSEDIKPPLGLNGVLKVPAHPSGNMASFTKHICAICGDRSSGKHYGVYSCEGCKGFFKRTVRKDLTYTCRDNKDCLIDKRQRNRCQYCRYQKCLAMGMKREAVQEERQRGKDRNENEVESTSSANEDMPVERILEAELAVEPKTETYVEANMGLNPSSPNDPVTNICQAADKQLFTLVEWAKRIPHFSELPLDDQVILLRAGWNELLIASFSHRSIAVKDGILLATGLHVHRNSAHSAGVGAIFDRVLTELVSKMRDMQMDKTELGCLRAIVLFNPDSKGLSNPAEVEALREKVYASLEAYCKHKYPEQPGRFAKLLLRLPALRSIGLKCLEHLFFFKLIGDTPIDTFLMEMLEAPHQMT
Type: cell-based
Method: CV-1 cells were seeded at a density of 2,000,000 cells in a T175 flask with DMEM+10% charcoal double-stripped FBS and incubated at 37° C. in 5% CO2 for 18 h (O/N).
After 18 h of incubation, the medium in the T175 flask was changed with fresh DMEM+10% charcoal super-stripped serum. In a polypropylene tube, 2500 μL OptiMEM (Life Technologies, Cat #31985-062) was combined with expression plasmids for hFXR, hRXR, TK-ECRE-luc and pCMX-YFP. The tube was then briefly vortexed and incubated at room temperature for 5 minutes. Transfection reagent (X-tremeGENE HP from Roche, Cat #06 366 236 001) was added to the OptiMEM/plasmid mixture vortexed and incubated at room temperature for 20 minutes. Following incubation, the transfection reagent/DNA mixture complex was added to cells in the T175 flask and the cells were incubated at 37° C. in 5% CO2 for 18 h (O/N).
Compounds were serially diluted in DMSO and added to transfected CV-1 cells. The cells were then incubated for 18 hrs. The next day cells were lysed and examined for luminescence.

`COc1ccc2c(N(C[C@H]3CC[C@H](c4ccc(OC)c(C)c4)CC3)C(=O)CC(C)(C)C)nccc2c1` [Compound 1] was tested. Which EC50 did it give?
Its EC50 is at most 1 µM.

`COc1ccc([C@H]2CC[C@H](CN(C(=O)CC(C)(C)C)c3nccc4cc(CO)ccc34)CC2)cc1C` [Compound 2, N-(6-(Hydroxymethyl)isoquinolin-1-yl)-N-((trans-4-(4-methoxy-3-methylphenyl)cyclohexyl)methyl)-3,3-dimethylbutanamide] was tested. Which EC50 did it give?
The EC50 was at most 1 µM.

`COc1ccc(-c2ccc(CN(C(=O)CC(C)(C)C)c3nccc4cc(CO)ccc34)cc2)cc1C` [Compound 2.01, N-(6-(Hydroxymethyl)isoquinolin-1-yl)-N-((4′-methoxy-3′-methyl-[1,1′-biphenyl]-4-yl)methyl)-3,3-dimethylbutanamide] was tested. Which EC50 did it give?
The EC50 was at most 1 µM.

With `COc1ccc(-c2ccc(CN(C(=O)CC(C)(C)C)c3nccc4cc(COCCO)ccc34)cc2)cc1C` [Compound 2.02, N-(6-((2-Hydroxyethoxy)methyl)isoquinolin-1-yl)-N-((4′-methoxy-3′-methyl-[1,1′-biphenyl]-4-yl)methyl)-3,3-dimethylbutanamide] as the compound, how does the EC50 read?
The EC50 was at most 1 µM.

How did the EC50 turn out when `COc1ccc([C@H]2CC[C@H](CN(C(=O)CC(C)(C)C)c3nccc4cc(C)ccc34)CC2)cc1C` [Compound 3, N-((trans-4-(4-Methoxy-3-methylphenyl)cyclohexyl)methyl)-3,3-dimethyl-N-(6-methylisoquinolin-1-yl)butanamide] was run?
Its EC50 is at most 1 µM.

`COc1ccc(-c2ccc(CN(C(=O)CC(C)(C)C)c3nccc4cc(Br)ccc34)cc2)cc1C` [Compound 4, N-(6-Bromoisoquinolin-1-yl)-N-((4′-methoxy-3′-methyl-[1,1′-biphenyl]-4-yl)methyl)-3,3-dimethylbutanamide] was tested. Which EC50 did it give?
The EC50 was at most 1 µM.

`COc1ccc(-c2ccc(CN(C(=O)CC(C)(C)C)c3ncnc4ccccc34)cc2)cc1C` [Compound 4.01, N-((4′-Methoxy-3′-methyl-[1,1′-biphenyl]-4-yl)methyl)-3,3-dimethyl-N-(quinazolin-4-yl)butanamide] was tested. Which EC50 did it give?
The EC50 was 1 to 10 µM.

With `COc1ccc2c(N(Cc3ccc(-c4ccc(OC)c(C)c4)cc3)C(=O)CC(C)(C)C)nccc2c1` [Compound 4.02, N-((4′-Methoxy-3′-methyl-[1,1′-biphenyl]-4-yl)methyl)-N-(6-methoxyisoquinolin-1-yl)-3,3-dimethylbutanamide] as the compound, how does the EC50 read?
The EC50 was at most 1 µM.

`COc1ccc(-c2ccc(CN(C(=O)CC(C)(C)C)c3nccc4c3CCCC4)cc2)cc1C` [Compound 4.03, N-((4′-Methoxy-3′-methyl-[1,1′-biphenyl]-4-yl)methyl)-3,3-dimethyl-N-(5,6,7,8-tetrahydroisoquinolin-1-yl)butanamide] was tested. Which EC50 did it give?
The EC50 was 1 to 10 µM.

How did the EC50 turn out when `COc1ccc(-c2ccc(CN(C(=O)CC(C)(C)C)c3nccc4ccsc34)cc2)cc1C` [Compound 4.04, N-((4′-Methoxy-3′-methyl-[1,1′-biphenyl]-4-yl)methyl)-3,3-dimethyl-N-(thieno[2,3-c]pyridine-7-yl)butanamide] was run?
Its EC50 is at most 1 µM.

How did the EC50 turn out when `COc1ccc(-c2ccc(CN(C(=O)CC(C)(C)C)c3nccc4sccc34)cc2)cc1C` [Compound 4.05, N-((4′-Methoxy-3′-methyl-[1,1′-biphenyl]-4-yl)methyl)-3,3-dimethyl-N-(thieno[3,2-c]pyridine-4-yl)butanamide] was run?
Its EC50 is at most 1 µM.

With `COc1ccc(-c2ccc(CN(C(=O)CC(C)(C)C)c3nccc4ccc(Br)cc34)cc2)cc1C` [Compound 4.06, N-(7-Bromoisoquinolin-1-yl)-N-((4′-methoxy-3′-methyl-[1,1′-biphenyl]-4-yl)methyl)-3,3-dimethylbutanamide] as the compound, how does the EC50 read?
Its EC50 is at most 1 µM.

How did the EC50 turn out when `COc1ccc(-c2ccc(CN(C(=O)CC(C)(C)C)c3nccc4c(Br)cccc34)cc2)cc1C` [Compound 4.07, N-(5-Bromoisoquinolin-1-yl)-N-((4′-methoxy-3′-methyl-[1,1′-biphenyl]-4-yl)methyl)-3,3-dimethylbutanamide] was run?
The EC50 was over 10 µM.

With `COc1ccc(-c2ccc(CN(C(=O)CC(C)(C)C)c3ccnc4ccccc34)cc2)cc1C` [Compound 4.08, N-((4′-Methoxy-3′-methyl-[1,1′-biphenyl]-4-yl)methyl)-3,3-dimethyl-N-(quinolin-4-yl)butanamide] as the compound, how does the EC50 read?
Its EC50 is over 10 µM.

How did the EC50 turn out when `COc1ccc(-c2ccc(CN(C(=O)CC(C)(C)C)c3nccc4cccnc34)cc2)cc1C` [Compound 4.09, N-((4′-Methoxy-3′-methyl-[1,1′-biphenyl]-4-yl)methyl)-3,3-dimethyl-N-(1,7-naphthyridin-8-yl)butanamide] was run?
The EC50 was at most 1 µM.

How did the EC50 turn out when `COc1ccc(-c2ccc(CN(C(=O)CC(C)(C)C)c3cncc4ccccc34)cc2)cc1C` [Compound 5, N-(Isoquinolin-4-yl)-N-((4′-methoxy-3′-methyl-[1,1′-biphenyl]-4-yl)methyl)-3,3-dimethylbutanamide] was run?
The EC50 was 1 to 10 µM.

`COc1ccc(-c2ccc(CN(C(=O)CC(C)(C)C)c3cccc4cnccc34)cc2)cc1C` [Compound 5.01, N-(Isoquinolin-5-yl)-N-((4′-methoxy-3′-methyl-[1,1′-biphenyl]-4-yl)methyl)-3,3-dimethylbutanamide] was tested. Which EC50 did it give?
The EC50 was over 10 µM.

`COc1ccc(-c2ccc(CN(C(=O)CC(C)(C)C)c3cccc4ccncc34)cc2)cc1C` [Compound 5.02, N-(Isoquinolin-8-yl)-N-((4′-methoxy-3′-methyl-[1,1′-biphenyl]-4-yl)methyl)-3,3-dimethylbutanamide] was tested. Which EC50 did it give?
Its EC50 is over 10 µM.

`COc1ccc(-c2ccc(CN(C(=O)CC(C)(C)C)c3nccc4cnccc34)cc2)cc1C` [Compound 5.03, N-((4′-Methoxy-3′-methyl-[1,1′-biphenyl]-4-yl)methyl)-3,3-dimethyl-N-(2,6-naphthyridin-1-yl)butanamide] was tested. Which EC50 did it give?
Its EC50 is 1 to 10 µM.

For `COc1ccc(-c2ccc(CN(C(=O)CC(C)(C)C)c3nccc4ccncc34)cc2)cc1C` [Compound 5.04, N-((4′-Methoxy-3′-methyl-[1,1′-biphenyl]-4-yl)methyl)-3,3-dimethyl-N-(2,7-naphthyridin-1-yl)butanamide], which EC50 is on record?
Its EC50 is 1 to 10 µM.

`COc1ccc(-c2ccc(CN(C(=O)CC(C)(C)C)c3nccc4cc(N5CCC(O)C5)ccc34)cc2)cc1C` (centres unmarked) [Compound 6, N-(6-(3-Hydroxypyrrolidin-1-yl)isoquinolin-1-yl)-N-((4′-methoxy-3′-methyl-[1,1′-biphenyl]-4-yl)methyl)-3,3-dimethylbutanamide] was tested. Which EC50 did it give?
The EC50 was at most 1 µM.

With `COc1ccc(-c2ccc(CN(C(=O)CC(C)(C)C)c3nccc4cc(N(C)CCO)ccc34)cc2)cc1C` [Compound 6.01, N-(6-((2-Hydroxyethyl)(methyl)amino)iso-quinolin-1-yl)-N-((4′-methoxy-3′-methyl-[1,1′-biphenyl]-4-yl)methyl)-3,3-dimethylbutanamide] as the compound, how does the EC50 read?
The EC50 was at most 1 µM.

For `COc1ccc(-c2ccc(CN(C(=O)CC(C)(C)C)c3nccc4cc(N(C)C)ccc34)cc2)cc1C` [Compound 6.1, N-(6-(Dimethylamino)isoquinolin-1-yl)-N-((4′-methoxy-3′-methyl-[1,1′-biphenyl]-4-yl)methyl)-3,3-dimethylbutanamide], which EC50 is on record?
Its EC50 is at most 1 µM.

`COc1ccc(-c2ccc(CN(C(=O)CC(C)(C)C)c3nccc4cc(N5CCC(O)C5)cnc34)cc2)cc1C` (centres unmarked) [Compound 6.2, N-(3-(3-Hydroxypyrrolidin-1-yl)-1,7-naphthyridin-8-yl)-N-((4′-methoxy-3′-methyl-[1,1′-biphenyl]-4-yl)methyl)-3,3-dimethylbutanamide] was tested. Which EC50 did it give?
Its EC50 is at most 1 µM.

For `COc1ccc(-c2ccc(CN(C(=O)CC(C)(C)C)c3nccc4cc(NCCO)ccc34)cc2)cc1C` [Compound 6.02, N-(6-((2-Hydroxyethyl)amino)isoquinolin-1-yl)-N-((4′-methoxy-3′-methyl-[1,1′-biphenyl]-4-yl)methyl)-3,3-dimethylbutanamide], which EC50 is on record?
Its EC50 is at most 1 µM.

`COc1ccc(-c2ccc(CN(C(=O)CC(C)(C)C)c3nccc4cc(N5CC(O)C5)ccc34)cc2)cc1C` [Compound 6.03, N-(6-(3-Hydroxyazetidin-1-yl)isoquinolin-1-yl)-N-((4′-methoxy-3′-methyl-[1,1′-biphenyl]-4-yl)methyl)-3,3-dimethylbutanamide] was tested. Which EC50 did it give?
Its EC50 is at most 1 µM.
